Test results reported in PubChem BioAssay (NCI).
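Method: 48-hour compound exposure of cells in 96-well plates, five concentrations, linear interpolation of endpoints. The concentration for 50% growth inhibition is given as GI50. Definition used: TGI = concentration required for complete inhibition of growth.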

How the values were obtained:
Assay in all cases: NCI-60 cell line screen, 48 h
UACC-257 melanoma = system: UACC-257 melanoma
RPMI-8226 leukemia = system: RPMI-8226 leukemia
A549 NSCLC = system: A549 NSCLC
ACHN renal = system: ACHN renal
MOLT-4 leukemia = system: MOLT-4 leukemia
OVCAR-8 ovarian = system: OVCAR-8 ovarian
M14 melanoma = system: M14 melanoma
UO-31 renal = system: UO-31 renal
HCT-15 colon = system: HCT-15 colon
NCI-H522 lung = system: NCI-H522 lung

Row | SMILES | GI50 (UACC-257 melanoma) [µM] | TGI (UACC-257 melanoma) [µM] | GI50 (RPMI-8226 leukemia) [µM] | TGI (RPMI-8226 leukemia) [µM] | GI50 (A549 NSCLC) [µM] | TGI (A549 NSCLC) [µM] | GI50 (ACHN renal) [µM] | TGI (ACHN renal) [µM] | GI50 (MOLT-4 leukemia) [µM] | TGI (MOLT-4 leukemia) [µM] | GI50 (OVCAR-8 ovarian) [µM] | TGI (OVCAR-8 ovarian) [µM] | GI50 (M14 melanoma) [µM] | TGI (M14 melanoma) [µM] | GI50 (UO-31 renal) [µM] | TGI (UO-31 renal) [µM] | GI50 (HCT-15 colon) [µM] | TGI (HCT-15 colon) [µM] | TGI (NCI-H522 lung) [µM] | GI50 (NCI-H522 lung) [µM]
1 | CCCCCCCC(=O)[O-].CCCCCCCC(=O)[O-].N.N.N.N.[Co+3].[O-][Cl+3]([O-])([O-])[O-] | > 100 | > 100 | > 100 | > 100 | > 100 | > 100 | > 100 | > 100 | > 100 | > 100 | > 100 | > 100 | > 100 | > 100 | > 100 | > 100 | > 100 | > 100 | – | –
2 | O=c1c2ccccc2oc2ccccc12 (tested in a mixture with another compound) | – | 9.31 | – | > 100 | – | > 100 | – | > 100 | – | – | – | > 100 | – | > 100 | – | > 100 | – | – | > 100 | –
3 | CC(C)N(C(=O)C12C3C4C5(C(=O)O)C(C1C35I)C42C(=O)O)C(C)C (centres undefined) | – | > 100 | – | – | – | > 100 | – | > 100 | – | > 100 | – | > 100 | – | > 100 | – | > 100 | – | > 100 | > 100 | –
4 | CCOC(=O)c1c(-c2ccccc2)[n+](=O)c2cc(F)c(F)cc2n1[O-] | 2.09 | 3.88 | 1.02 | 3.98 | 2.14 | 4.46 | 1.38 | 2.8 | 0.415 | > 100 | 2.06 | 4.43 | 1.11 | 2.34 | – | – | 0.215 | 0.441 | > 100 | 36.5
5 | CC(C)=Cc1cc(CCC/C(C)=C/Cc2c(O)cc(C)c(C(=O)O)c2O)co1 | – | > 100 | – | > 100 | – | > 100 | – | > 100 | – | – | – | > 100 | – | > 100 | – | > 100 | – | > 100 | > 100 | –
6 | CC(C)(C)c1ccc(C2CC(=O)C3=C(C2)Nc2ccccc2N(C(=O)c2ccccc2Cl)C3c2ccc(F)cc2)cc1 (centres undefined) | > 100 | > 100 | 4.14 | > 100 | > 100 | > 100 | > 100 | > 100 | – | – | > 100 | > 100 | > 100 | > 100 | > 100 | > 100 | > 100 | > 100 | – | –
7 | CN1CCC(c2c(O)cc(O)c3c(=O)cc(-c4ccccc4Cl)oc23)C(O)C1 (centres undefined) | – | – | – | 0.0285 | – | > 100 | – | – | – | 0.198 | – | – | – | 0.236 | – | > 100 | 0.0506 | > 100 | 0.448 | –
8 | CN1CCN=C1c1nnn(-c2ccc([N+](=O)[O-])cc2)c1-c1ccccc1 | – | > 100 | – | – | – | > 100 | – | > 100 | – | > 100 | – | > 100 | – | > 100 | – | > 100 | – | > 100 | > 100 | –
9 | COc1cc(OC)c2c(=O)cc(-c3ccccc3OCc3ccccc3)oc2c1OC | 6.05 | 82.1 | 2.83 | > 100 | 63.5 | > 100 | 6.19 | > 100 | – | – | > 100 | > 100 | 7.22 | 23.1 | > 100 | > 100 | 16.2 | > 100 | > 100 | 50.7
10 | CCOC(=O)[C@@]12C(C)=CC(=O)O[C@]1(C)C1C(=O)NC(=O)C12 (some centres undefined) | – | > 100 | – | > 100 | – | > 100 | – | > 100 | – | > 100 | – | > 100 | – | > 100 | – | > 100 | – | – | – | –
11 | NC1=NC(SCc2ccccc2CCl)c2ncn(Cc3ccccc3CCl)c2N1 (centres undefined) | 1.54 | 3.07 | – | – | 2.04 | 5.01 | 2.07 | 5.45 | 2.04 | 6.03 | 2.01 | 5.09 | – | – | 1.51 | 3.08 | 2.9 | 12.3 | – | –
12 | C1CSC[C@H]2COC[C@@H](CSCCS1)S2 | – | > 100 | – | – | – | > 100 | – | – | – | > 100 | – | > 100 | – | > 100 | – | > 100 | – | > 100 | > 100 | –
13 | O=C(O)c1c2c(cc3c(=O)c4ccccc4[nH]c13)CCCC2 | – | > 100 | – | > 100 | – | > 100 | – | > 100 | – | > 100 | – | > 100 | – | – | – | > 100 | – | > 100 | – | –
14 | COc1cc(Cc2c(C)cc(OC)c3[nH]c4ccccc4c23)cc2c1[nH]c1ccccc12 | – | – | – | > 25 | 5.73 | 16.7 | 4.67 | > 25 | 5.69 | > 25 | – | 10.9 | 5.12 | 11.8 | 6.05 | 18.6 | 6.89 | > 25 | 11.6 | 5.03
15 | O=C1CC(c2cccc(Cl)c2)Oc2ccccc21 (centres undefined) | – | 32.2 | – | 9.83 | – | – | – | 31.7 | – | – | – | 53.8 | – | 36 | – | 27.6 | – | 49 | – | –
